# Source: patent publication US9284283B2, “Macrocyclic compounds for modulating IL-17” (ENSEMBLE THERAPEUTICS CORPORATION, priority 2012, dated 2016)
# Values joined by “and” are separate entries in the source; they are usually repeats but may differ in a detail not shown here. Equal entries are not always repeated.
# Experiments:
# [1] = system: DNFB-treated BALB/c mice; experiment: Murine model of delayed hypersensitivity (DNFB-induced ear edema); assay type: in vivo, mouse; details: for Reduction in edema (%): ear weight 24 h after DNFB challenge
# Procedure: We used a murine model of fluorodinitrobenzene (DNFB)-induced ear edema to test the anti-inflammatory activity of both orally dosed and intraperitoneally dosed exemplary compounds of the invention. BALB/c mice (Harlan Sprague-Dawley, Inc., male, 6-8 weeks old) were topically treated on their shaved abdomen with 30 μL of 0.5% 1-fluoro-2,4-dinitrobenzene (DNFB) (4:1 acetone:olive oil) once on Day 0 and once on Day 1.
# For oral dosing (“PO”), exemplary compounds of the invention were either suspended at 3 mg/mL in 20% Cremophor EL (Sigma) (20:80; Cremophor:water) or dissolved at 1 mg/mL or 3 mg/mL in D-α-tocopherol polyethylene glycol 1000 succinate (TPGS; Sigma)/PEG-400/water (20:60:20). For intraperitoneal dosing (“IP”), exemplary compounds of the invention were dissolved in DMSO at a concentration of 5 mg/mL. On day 7, the test compound was administered (PO at either 10 mg/kg or 30 mg/kg; IP at 1, 3, or 10 mg/kg) to DNFB-treated mice. Commercially available anti-mouse IL-17A (BioLegend) administered intraperitoneally at 5 mg/kg in PBS was used as a positive control. Thirty minutes later, 20 μL of 0.2% DNFB was applied to the right ear of animals and vehicle ([…]:olive oil) was applied to the left ear. One and four hours after DNFB challenge, a subset of mice was exsanguinated and plasma prepared from the blood. Twenty-four hours after challenge, the remaining mice were euthanized, and their ears were removed and weighed to determine the amount of edema. Plasma was assayed for interleukin-6, TNF-α, CXCL1, and interferon-γ concentrations using commercially-available assays.
# [2] = system: murine collagen-induced arthritis; experiment: Mouse collagen-induced arthritis (CIA) model; assay type: in vivo; details: for reduction of overall mean Clinical Arthritis Score: FIG. 11
# Procedure: Exemplary compounds of the invention were evaluated in a murine CIA model. […] mice (10/group) were anaesthetized with Isoflurane, shaved at the base of the tail, and injected intradermally with 150 μL of Freund's Complete Adjuvant (Sigma) containing bovine type II collagen (Elastin Products, Owensville, Mo.) (2 mg/mL) at the base of the tail on day 0 and again on day 21. On study days 24-25, onset of arthritis occurred and mice were randomized into treatment groups. Randomization into each group was done after swelling was obviously established in at least one paw (score of 1), and attempts were made to ensure approximately equal mean scores of 0.25 across the groups at the time of enrollment. Once a day oral treatment with 10 or 30 mg/kg of test compound in 20% Cremophor EL was initiated after enrollment and continued once a day as indicated through arthritis day 10. Mice were terminated on day 11. Clinical scores were calculated for each of the paws (right front, left front, right rear, and left rear) on arthritis days 1-11 and the results were summarized as a reduction in clinical arthritis score for all paws over the time period of dosing.
smiles,measurement,setting,value
O=C1CNC(=O)[C@@H](Cc2ccc(NC(=O)[C@H](Cc3ccccc3Cl)NC(=O)Cc3ccccc3)cc2)NC(=O)CC2(CCCC2)CC(=O)NCCCCCN1 [Compound 159],"reduction in TNF-α, IFN-γ and edema as compared to a PBS control or DMSO control","[1]; i.p. 10 mg/kg, FIG. 1",statistically significant reduction
same,"reduction in IL-6, IFN-γ and edema compared to a DMSO control","[1]; i.p. at 1 mg/kg, 3 mg/kg, or 10 mg/kg, FIG. 2",statistically significant reduction
same,Reduction in edema (%),"[1]; ip, 1 mg/kg",17%
same,IFNγ Reduction (%),"[1]; ip, 1 mg/kg, plasma",54.2%
same,IL6 Reduction (%),"[1]; ip, 1 mg/kg, plasma",62.6%
same,Reduction in edema (%),"[1]; ip, 3 mg/kg",44%
same,IFNγ Reduction (%),"[1]; ip, 3 mg/kg, plasma",85.5%
same,IL6 Reduction (%),"[1]; ip, 3 mg/kg, plasma",72.2%
same,Reduction in edema (%),"[1]; ip, 10 mg/kg",54.1% and 54%
same,IL6 Reduction (%),"[1]; ip, 10 mg/kg, plasma",78.6%
same,TNFα Reduction (%),"[1]; ip, 10 mg/kg, plasma",21.7%
same,"IL-6, IFN-γ, and edema, dose-dependent","[1]; orally dosed in TPGS/PEG400/Water vehicle, FIG. 5",effectively reduced
same,Reduction in edema (%),"[1]; po, 10 mg/kg",19.0%
same,IFNγ Reduction (%),"[1]; po, 10 mg/kg, plasma",24.2%
same,IL6 Reduction (%),"[1]; po, 10 mg/kg, plasma",29.8%
same,Reduction in edema (%),"[1]; po, 30 mg/kg",53.7%
same,IFNγ Reduction (%),"[1]; po, 30 mg/kg, plasma",64.5%
same,IL6 Reduction (%),"[1]; po, 30 mg/kg, plasma",58.3%
same,reduction of overall mean Clinical Arthritis Score,[2]; orally 10 mg/kg,6%
same,reduction of overall mean Clinical Arthritis Score,[2]; orally 30 mg/kg,11%
same,reduction in mean Clinical Arthritis Score on days 27-30 as compared to vehicle controls,"[2]; orally 10 and 30 mg/kg in 20% Cremophor EL, FIG. 10",superior reduction
